Blank lines part the entries; values can stand above or below the molecule they belong to.
What was measured:
[1] = target: PI3Kδ (Homo sapiens (Human), UniProt O00329); experiment: TR-FRET enzymatic assay of PI3K isoforms, PI3Kδ; conditions: read-out: PI3Kδ IC50, 2×Km ATP, 30 minutes at 25° C.
Procedure: (§1) The compounds of formula (I) were characterized for their enzymatic activity against the PI3K isoforms. The activities were measured using a time-resolved fluorescence resonance energy transfer (TR-FRET) assay. TR-FRET monitored the formation of 3,4,5-inositol triphosphate molecule that competed with fluorescently labeled PIP3 for binding to the GRP-1 pleckstrin homology domain protein.
(§2) Class I PI3K isoforms were expressed and purified as heterodimeric recombinant proteins. All assay reagents and buffers for the TR-FRET assay were purchased from Millipore. […] The reactions were terminated with a final concentration of 10 mM EDTA, 10 nM labeled-PIP3, and 35 nM Europium labeled GRP-1 detector protein before reading TR-FRET on an Envision plate reader (Ex: 340 nm; Em: 615/665 nm; 100 μs delay and 500 μs read window).
(§3) The results were normalized based on positive (1 μM wortmanin) and negative (DMSO) controls, and the IC50 values for PI3K α, β, δ and γ were calculated from the fit of the dose-response curves to a four-parameter equation.

[2] = target: PI3Kγ (Homo sapiens (Human), UniProt P48736); experiment: TR-FRET enzymatic assay of PI3K isoforms, PI3Kγ; type: biochemical; conditions: 2×Km ATP, PI3Kγ at 2 nM, 30 minutes at 25° C.
Procedure: as §1, §2, §3

[3] = target: PI3Kβ (Homo sapiens (Human), UniProt P42338); experiment: TR-FRET enzymatic assay of PI3K isoforms, PI3Kβ; type: biochemical; conditions: for IC50: TR-FRET, 2×Km ATP, 30 minutes at 25° C.; for PI3Kγ/PI3Kβ ratio: ratio of IC50 values, selectivity for PI3Kβ over PI3Kγ
Sequence of PI3Kβ (P42338 whole entry, canonical isoform): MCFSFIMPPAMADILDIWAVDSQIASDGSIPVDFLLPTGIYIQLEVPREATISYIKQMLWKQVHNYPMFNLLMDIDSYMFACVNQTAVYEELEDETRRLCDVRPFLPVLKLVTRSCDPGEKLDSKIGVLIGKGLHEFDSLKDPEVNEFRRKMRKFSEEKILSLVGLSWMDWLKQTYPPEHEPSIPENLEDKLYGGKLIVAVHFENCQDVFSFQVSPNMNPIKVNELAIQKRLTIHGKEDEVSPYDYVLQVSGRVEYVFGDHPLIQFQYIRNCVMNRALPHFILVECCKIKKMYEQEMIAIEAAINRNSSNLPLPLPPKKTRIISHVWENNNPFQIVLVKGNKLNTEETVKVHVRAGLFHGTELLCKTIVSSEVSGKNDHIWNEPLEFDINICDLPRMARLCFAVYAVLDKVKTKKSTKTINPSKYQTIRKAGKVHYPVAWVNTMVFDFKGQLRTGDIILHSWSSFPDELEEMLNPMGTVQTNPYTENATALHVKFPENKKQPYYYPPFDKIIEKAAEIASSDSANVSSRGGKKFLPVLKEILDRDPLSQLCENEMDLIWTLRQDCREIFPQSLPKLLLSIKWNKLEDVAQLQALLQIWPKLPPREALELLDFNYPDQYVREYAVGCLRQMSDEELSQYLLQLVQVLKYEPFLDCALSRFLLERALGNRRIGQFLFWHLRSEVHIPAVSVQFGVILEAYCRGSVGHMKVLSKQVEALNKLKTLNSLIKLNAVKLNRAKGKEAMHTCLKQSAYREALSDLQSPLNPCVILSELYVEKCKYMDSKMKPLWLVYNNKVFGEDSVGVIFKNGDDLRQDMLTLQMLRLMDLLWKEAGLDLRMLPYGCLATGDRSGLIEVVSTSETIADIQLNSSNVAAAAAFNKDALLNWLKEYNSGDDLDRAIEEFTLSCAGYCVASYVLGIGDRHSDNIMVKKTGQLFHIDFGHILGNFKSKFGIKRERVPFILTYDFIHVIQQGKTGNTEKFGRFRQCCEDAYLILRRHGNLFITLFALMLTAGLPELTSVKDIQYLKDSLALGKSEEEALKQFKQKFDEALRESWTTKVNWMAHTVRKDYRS
Sequence of PI3Kβ (P27986 whole entry partner, canonical isoform): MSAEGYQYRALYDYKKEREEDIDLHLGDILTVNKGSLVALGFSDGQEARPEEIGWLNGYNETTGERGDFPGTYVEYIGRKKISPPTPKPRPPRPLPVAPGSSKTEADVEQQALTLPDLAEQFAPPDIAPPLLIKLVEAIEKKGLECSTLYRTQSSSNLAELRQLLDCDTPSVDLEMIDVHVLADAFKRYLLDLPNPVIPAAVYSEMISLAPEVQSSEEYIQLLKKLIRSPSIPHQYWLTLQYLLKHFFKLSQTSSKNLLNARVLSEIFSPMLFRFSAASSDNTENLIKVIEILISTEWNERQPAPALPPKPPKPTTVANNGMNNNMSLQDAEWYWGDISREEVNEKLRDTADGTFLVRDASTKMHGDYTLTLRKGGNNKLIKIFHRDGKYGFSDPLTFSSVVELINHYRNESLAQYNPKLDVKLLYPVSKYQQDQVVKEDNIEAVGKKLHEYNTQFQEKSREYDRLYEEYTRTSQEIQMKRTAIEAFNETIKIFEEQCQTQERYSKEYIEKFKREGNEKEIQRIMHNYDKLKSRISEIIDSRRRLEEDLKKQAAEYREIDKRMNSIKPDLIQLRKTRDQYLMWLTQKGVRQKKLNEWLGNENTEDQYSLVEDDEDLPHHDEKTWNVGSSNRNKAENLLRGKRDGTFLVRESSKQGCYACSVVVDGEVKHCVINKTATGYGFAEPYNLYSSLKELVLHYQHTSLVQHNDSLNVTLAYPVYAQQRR
Procedure: as §1, §2, §3

Sequence of PI3Kγ (P48736 whole entry, canonical isoform): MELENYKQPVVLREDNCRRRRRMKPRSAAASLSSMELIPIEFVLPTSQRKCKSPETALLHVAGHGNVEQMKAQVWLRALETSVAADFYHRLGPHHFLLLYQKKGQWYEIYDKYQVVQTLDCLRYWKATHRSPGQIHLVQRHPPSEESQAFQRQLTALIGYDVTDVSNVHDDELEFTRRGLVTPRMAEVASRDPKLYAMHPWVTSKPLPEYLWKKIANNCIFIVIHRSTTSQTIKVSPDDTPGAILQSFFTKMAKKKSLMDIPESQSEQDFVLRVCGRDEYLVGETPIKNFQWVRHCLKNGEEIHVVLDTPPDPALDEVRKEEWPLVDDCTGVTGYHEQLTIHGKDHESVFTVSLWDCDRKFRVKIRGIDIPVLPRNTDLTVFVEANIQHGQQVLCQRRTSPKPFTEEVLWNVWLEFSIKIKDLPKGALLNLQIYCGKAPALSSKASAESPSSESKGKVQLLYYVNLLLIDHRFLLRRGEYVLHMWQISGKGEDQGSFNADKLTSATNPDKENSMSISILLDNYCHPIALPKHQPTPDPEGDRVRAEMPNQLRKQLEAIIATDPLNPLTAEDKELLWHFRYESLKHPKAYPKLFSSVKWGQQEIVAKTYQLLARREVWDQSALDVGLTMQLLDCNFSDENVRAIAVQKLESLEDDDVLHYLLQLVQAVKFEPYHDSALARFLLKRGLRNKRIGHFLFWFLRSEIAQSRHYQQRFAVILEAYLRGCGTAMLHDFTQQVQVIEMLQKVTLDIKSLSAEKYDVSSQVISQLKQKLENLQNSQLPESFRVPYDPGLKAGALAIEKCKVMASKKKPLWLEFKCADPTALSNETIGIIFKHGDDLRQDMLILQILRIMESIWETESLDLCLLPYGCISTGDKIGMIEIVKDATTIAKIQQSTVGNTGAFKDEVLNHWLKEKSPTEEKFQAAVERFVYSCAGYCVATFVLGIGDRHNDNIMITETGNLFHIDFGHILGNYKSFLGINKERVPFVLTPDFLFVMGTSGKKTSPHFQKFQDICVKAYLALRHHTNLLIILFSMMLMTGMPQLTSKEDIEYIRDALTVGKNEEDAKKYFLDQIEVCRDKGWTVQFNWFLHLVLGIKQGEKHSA
Sequence of PI3Kδ (O00329 whole entry, canonical isoform): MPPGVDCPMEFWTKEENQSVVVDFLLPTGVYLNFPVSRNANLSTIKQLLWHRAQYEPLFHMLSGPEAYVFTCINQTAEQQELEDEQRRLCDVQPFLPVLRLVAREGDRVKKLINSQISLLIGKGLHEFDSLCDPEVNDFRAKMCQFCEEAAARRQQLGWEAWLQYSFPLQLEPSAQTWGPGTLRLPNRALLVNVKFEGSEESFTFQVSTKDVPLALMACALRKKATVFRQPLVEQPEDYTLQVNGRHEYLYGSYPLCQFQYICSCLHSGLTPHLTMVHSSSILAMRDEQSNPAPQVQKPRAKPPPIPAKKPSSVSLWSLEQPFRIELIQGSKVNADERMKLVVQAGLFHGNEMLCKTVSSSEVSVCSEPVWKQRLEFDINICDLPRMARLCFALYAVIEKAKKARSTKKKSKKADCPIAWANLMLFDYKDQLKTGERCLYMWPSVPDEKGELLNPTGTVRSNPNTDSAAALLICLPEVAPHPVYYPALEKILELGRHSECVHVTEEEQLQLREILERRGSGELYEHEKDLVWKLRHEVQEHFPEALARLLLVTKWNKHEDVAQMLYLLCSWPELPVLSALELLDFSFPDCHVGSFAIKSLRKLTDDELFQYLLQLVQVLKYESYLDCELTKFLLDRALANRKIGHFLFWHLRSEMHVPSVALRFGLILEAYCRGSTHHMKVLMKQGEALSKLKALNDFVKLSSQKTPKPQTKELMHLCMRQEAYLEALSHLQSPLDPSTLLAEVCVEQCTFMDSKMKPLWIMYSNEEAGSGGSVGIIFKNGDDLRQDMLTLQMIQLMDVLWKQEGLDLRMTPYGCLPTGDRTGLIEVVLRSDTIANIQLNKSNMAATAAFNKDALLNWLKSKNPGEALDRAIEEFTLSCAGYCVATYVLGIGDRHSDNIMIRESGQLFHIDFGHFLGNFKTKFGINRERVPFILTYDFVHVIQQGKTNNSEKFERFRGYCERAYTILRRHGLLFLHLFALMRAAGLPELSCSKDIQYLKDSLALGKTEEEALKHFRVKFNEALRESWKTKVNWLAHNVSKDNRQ
Sequence of PI3Kδ (P27986 whole entry partner, canonical isoform): as the sequence (P27986 whole entry partner, canonical isoform) above

Compound: C[C@H](Nc1ncnc2occc12)c1nc2c(F)ccc(Cl)c2c(=O)n1-c1cnc(N)cn1 [Compound 5, (S)-3-(5-amninopyrazin-2-yl)-5-chloro-8-fluoro-2-(1-(furo[2,3-d]pyrimidin-4-ylamino)ethyl)quinazolin-4(3H)-one]
IC50 [1]: 2300 nM
IC50 [2]: > 10000 nM
IC50 [3]: 5800 nM

Compound: Nc1cnc(-n2c([C@@H](Nc3nc(N)nc(N)c3Cl)C3CC3)nc3cccc(Cl)c3c2=O)cn1 [Compound 8, (S)-3-(5-aminopyrazin-2-yl)-5-chloro-2-(cyclopropyl((2,6-diamino-5-chloropyrimidin-4-yl)amino)methyl)quinazolin-4(3H)-one]
IC50 [1]: 24 nM
IC50 [2]: > 10000 nM
IC50 [3]: 190 nM

Compound: Nc1cnc(-n2c([C@@H](Nc3ncnc(N)c3Cl)C3CC3)nc3cccc(Cl)c3c2=O)cn1 [Compound 21, (S)-2-(((6-Amino-5-chloropyrimidin-4-yl)amino)(cyclopropyl)methyl)-3-(5-aminopyrazin-2-yl)-5-chloroquinazolin-4(3H)-one]
IC50 [2]: > 10000 nM
IC50 [3]: 720 nM

Compound: C[C@H](Nc1nc(N)nc(N)c1C#N)c1nc2cccc(Cl)c2c(=O)n1-c1ccccc1 [(S)-2,4-diamino-6-((1-(5-chloro-4-oxo-3-phenyl-3,4-dihydroquinazolin-2-yl)ethyl)amino)pyrimidine-5-carbonitrile, reference compound]
PI3Kγ/PI3Kβ ratio [3]: less than 1

Compound: C[C@H](Nc1nc(N)nc(N)c1Cl)c1nc2c(F)ccc(Cl)c2c(=O)n1-c1cnc(N)cn1 [Compound 1, (S)-3-(5-aminopyrazin-2-yl)-5-chlor-2-(1-((2,6-diamino-5-chloropyrimidin-4-yl)amino)ethyl)-8-fluoroquinazolin-4(3H)-one]
IC50 [2]: > 10000 nM
IC50 [3]: 54 nM

Compound: C[C@H](Nc1nc(N)nc(C(F)F)c1C#N)c1nc2c(Cl)cc(F)cc2c(=O)n1-c1cnc(N)cn1 [Compound 14, (S)-2-amino-4-((1-(3-(5-aminopyrazin-2-yl)-8-chloro-6-fluoro-4-oxo-3,4-dihydroquinazolin-2-yl)ethyl)amino)-6-(difluoromethyl)pyrimidine-5-carbonitrile]
IC50 [1]: 340 nM
IC50 [2]: > 10000 nM
IC50 [3]: 200 nM

Compound: C[C@H](Nc1nc(N)nc(N)c1C#N)c1nc2cccc(Cl)c2c(=O)n1-c1cccnc1 [Compound X, (S)-2,4-diamino-6-((1-(5-chloro-4-oxo-3-(pyridin-3-yl)-3,4-dihydroquinazolin-2-yl)ethyl)amino)pyrimidine-5-carbonitrile, reference compound]
PI3Kγ/PI3Kβ ratio [3]: 0.6

Compound: C[C@H](Nc1nc(N)nc(N)c1Cl)c1nc2c(Cl)ccc(Cl)c2c(=O)n1-c1cnc(N)cn1 [Compound 13, (S)-3-(5-aminopyrazin-2-yl)-5,8-dichloro-2-(1-((2,6-diamino-5-chloropyrimidin-4-yl)amino)ethyl)quinazolin-4(3H)-one]
IC50 [1]: 31 nM
IC50 [2]: > 10000 nM
IC50 [3]: 170 nM

Compound: Nc1cnc(-n2c([C@@H](Nc3nc(N)nc(N)c3Cl)C3CC3)nc3c(Cl)ccc(Cl)c3c2=O)cn1 [Compound 12, (S)-3-(5-aminopyrazin-2-yl)-5,8-dichloro-2-(cyclopropyl((2,6-diamino-5-chloropyrimidin-4-yl)amino)methyl)quinazolin-4(3H)-one]
IC50 [1]: 97 nM
IC50 [2]: > 10000 nM
IC50 [3]: 1200 nM

Compound: C[C@H](Nc1ncnc2[nH]nnc12)c1nc2c(F)cccc2c(=O)n1-c1cnc(N)cn1 [Compound 4, (S)-2-(1-((3H-[1,2,3]triazolo[4,5-d]pyrimidin-7-yl)amino)ethyl)-3-(5-aminopyrazin-2-yl)-8-fluoroquinazolin-4(3H)-one]
IC50 [1]: 2700 nM
IC50 [2]: > 10000 nM
IC50 [3]: > 10000 nM

Compound: C[C@H](Nc1ncnc(N)c1C#N)c1nc2c(F)ccc(Cl)c2c(=O)n1-c1cnc(N)cn1 [Compound 3, (S)-4-amino-6-((1-(3-(5-aminopyrazin-2-yl)-5-chloro-8-fluoro-4-oxo-3,4-dihydroquinazolin-2-yl)ethyl)amino)pyrimidine-5-carbonitrile]
IC50 [1]: 11 nM
IC50 [2]: > 10000 nM
IC50 [3]: 74 nM

Further molecules by falling IC50 [2], results first:

IC50 [1]: 32 nM
IC50 [2]: 4900 nM
IC50 [3]: 14 nM
Compound: C[C@H](Nc1nc(N)nc(N)c1C#N)c1nc2c(Cl)cc(F)cc2c(=O)n1-c1cnc(N)cn1 [Compound 17]

IC50 [1]: 24 nM
IC50 [2]: 4000 nM
IC50 [3]: 47 nM
Compound: C[C@H](Nc1nc(N)nc(N)c1Cl)c1nc2cccc(Cl)c2c(=O)n1-c1cnc(N)cn1 [Compound 7, (S)-3-(5-aminopyrazin-2-yl)-5-chloro-2-(1-((2,6-diamino-5-chloropyrimidin-4-yl)amino)ethyl)quinazolin-4(3H)-one]

IC50 [1]: 2.4 nM
IC50 [2]: 3100 nM
IC50 [3]: 3.6 nM
Compound: N#Cc1c(N)nc(N)nc1N[C@H](c1nc2c(Cl)ccc(Cl)c2c(=O)n1-c1cnc(N)cn1)C1CC1 [Compound 10, (S)-2,4-diamino-6-(((3-(5-aminopyrazin-2-yl)-5,8-dichloro-4-oxo-3,4-dihydroquinazolin-2-yl)(cyclopropyl)methyl)amino)pyrimidine-5-carbonitrile]

IC50 [1]: 1.9 nM
IC50 [2]: 1500 nM
IC50 [3]: 1.8 nM
Compound: C[C@H](Nc1nc(N)nc(N)c1C#N)c1nc2c(Cl)ccc(Cl)c2c(=O)n1-c1cnc(N)cn1 [Compound 11, (S)-2,4-diamino-6-((1-(3-(5-aminopyrazin-2-yl)-5,8-dichloro-4-oxo-3,4-dihydroquinazolin-2-yl)ethyl)amino)pyrimidine-5-carbonitrile]

IC50 [1]: 53 nM
IC50 [2]: 1500 nM
IC50 [3]: 9.8 nM
Compound: C[C@H](Nc1nc(N)nc(N)c1C#N)c1nc2c(F)cc(F)cc2c(=O)n1-c1cnc(N)cn1 [Compound 15, (S)-2,4-Diamino-6-((1-(3-(5-aminopyrazin-2-yl)-6,8-difluoro-4-oxo-3,4-dihydroquinazolin-2-yl)ethyl)amino)pyrimidine-5-carbonitrile]

IC50 [1]: 2.7 nM
IC50 [2]: 900 nM
IC50 [3]: 4.2 nM
Compound: N#Cc1c(N)nc(N)nc1N[C@H](c1nc2cccc(Cl)c2c(=O)n1-c1cnc(N)cn1)C1CC1 [Compound 9]

IC50 [1]: 3.5 nM
IC50 [2]: 630 nM
IC50 [3]: 4.4 nM
Compound: C[C@H](Nc1nc(N)nc(N)c1C#N)c1nc2c(F)ccc(Cl)c2c(=O)n1-c1cnc(N)cn1 [Compound 2, (S)-2,4-diamino-6-((1-(3-(5-aminopyrazin-2-yl)-5-chloro-8-fluoro-4-oxo-3,4-dihydroquinazolin-2-yl)ethyl)amino)pyrimidine-5-carbonitrile]

IC50 [1]: 2 nM
IC50 [2]: 280 nM
IC50 [3]: 2 nM
Compound: C[C@H](Nc1nc(N)nc(N)c1C#N)c1nc2cccc(Cl)c2c(=O)n1-c1cnc(N)cn1 [Compound 6, (S)-2,4-diamino-6-((1-(3-(5-aminopyrazin-2-yl)-5-chloro-4-oxo-3,4-dihydroquinazolin-2-yl)ethyl)amino)pyrimidine-5-carbonitrile]

Reference: patent publication US9499523B2, “Phosphatidylinositol 3-kinase inhibitors” (Gilead Sciences, Inc., priority 2014, dated 2016)
